Laboratory results taken from US8227511B2, “Substituted chromanol derivatives and their use” (Bayer Intellectual Property GmbH, priority 2006, dated 2012).

Experiments:
CETP [1] = target: T1, CETP (Homo sapiens, UniProt P11597); assay: CETP-SPA test; format: biochemical; settings: transfer of 3H-cholesterol ester from human HDL to biotinylated LDL; 37° C. for 18 h
T1 construct: CETP is obtained in partially purified form from human plasma by differential centrifugation and column chromatography and used for the test; from tissue; host or cells: human plasma
T1 sequence (P11597 18-493): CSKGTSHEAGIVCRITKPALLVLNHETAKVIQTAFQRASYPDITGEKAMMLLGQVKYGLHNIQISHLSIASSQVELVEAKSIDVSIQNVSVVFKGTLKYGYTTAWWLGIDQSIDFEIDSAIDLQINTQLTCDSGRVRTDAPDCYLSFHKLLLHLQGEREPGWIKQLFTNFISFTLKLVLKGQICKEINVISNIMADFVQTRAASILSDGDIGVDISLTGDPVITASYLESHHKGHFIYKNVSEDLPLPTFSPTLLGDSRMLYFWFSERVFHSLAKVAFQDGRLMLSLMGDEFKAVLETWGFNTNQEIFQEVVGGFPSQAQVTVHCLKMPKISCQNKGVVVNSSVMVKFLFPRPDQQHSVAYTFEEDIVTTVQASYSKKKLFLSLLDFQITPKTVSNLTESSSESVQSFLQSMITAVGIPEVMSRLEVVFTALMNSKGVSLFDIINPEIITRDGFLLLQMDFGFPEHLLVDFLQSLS
Experimental: (§1) CETP is obtained in partially purified form from human plasma by differential centrifugation and column chromatography and used for the test. To this end, human plasma is adjusted to a density of 1.21 g per ml using NaBr and centrifuged at 4° C. at 50 000 rpm for 18 h. The bottom fraction (d>1.21 g/ml) is applied to a Phenyl-Sepharose 26/10 HP fast flow-column (Pharmacia), washed with PBS buffer and then eluted with distilled water. 10 parts of PBS buffer and 1% (w/v) BSA are added to the eluate. The CETP-active fractions are pooled.
For testing of the CETP activity, the transfer of ^3H-cholesterol ester from human HD lipoproteins to biotinylated LD lipoproteins is measured. The reaction is ended by addition of streptavidin-SPA® beads (Amersham) and the transferred radioactivity is determined directly in a liquid scintillation counter.
In the test batch, 10 μl of HDL-3H-cholesterol ester (about 50 000 cpm) are incubated at 37° C. for 18 h with 10 μl of biotin-LDL (Amersham) in 50 mM Hepes/0.15 M NaCl/0.1% bovine serum albumin (RSA)/0.05% NaN3 pH 7.4 containing 10 μl of CETP (1 mg/ml) and 3 μl of a solution of the substance to be tested (dissolved in 10% DMSO/1% RSA). 200 μl of the SPA-streptavidin bead solution (TRKQ 7005) are then added, incubated further with shaking for 1 h and then measured in a scintillation counter. Corresponding incubations with 10 μl of buffer, 10 μl of CETP at 4° C. and 10 μl of CETP at 37° C. serve as controls.
The activity transferred in the control batches with CETP at 37° C. is rated as 100% transfer. The substance concentration at which this transfer is reduced to half is specified as the IC50 value.

CETP [2] = target: T1, CETP; assay: CETP fluorescence test with enriched CETP; format: biochemical; settings: enriched CETP fraction from human plasma; transfer of fluorescent cholesterol ester between liposomes; 37° C. for 4 h
Experimental: as §1
Measurement of the CETP-catalyzed transfer of a fluorescent cholesterol ester between liposomes [modified according to the procedure of Bisgaier et al., J. Lipid Res. 34, 1625 (1993)]:
For the production of the donor liposomes, 1 mg of cholesteryl 4,4-difluoro-5,7-dimethyl-4-bora-3a,4a-diaza-s-indacene-3-dodecanoate (cholesteryl BODIPY® FL C12, Molecular Probes) is dissolved in 2 ml of chloroform with 5.35 mg of triolein and 6.67 mg of phosphatidylcholine. The solvent is removed at medium temperature in a SpeedVac and the residue is dried under high vacuum for 1 h. The residue is then dissolved in 600 μl of dioxane with gentle warming in an ultrasonic bath and this solution is added very slowly with ultrasonication to 63 ml of 50 mM Tris/HCl, 150 mM NaCl, 2 mM EDTA buffer pH 7.3 at room temperature. The suspension is then ultrasonicated under an N2 atmosphere for 30 minutes in the Branson ultrasonic bath at about 50 watts, the temperature being kept at about 20° C.
The acceptor liposomes are obtained analogously from 86 mg of cholesteryl oleate, 20 mg of triolein and 100 mg of phosphatidylcholine dissolved in 1.2 ml of dioxane and 114 ml of the above buffer by ultrasonication at 50 watts (20° C.) for 30 minutes.
For testing, a test mix consisting of 1 part of above buffer, 1 part of donor liposomes and 2 parts of acceptor liposomes is used.
50 μl of test mix are treated with 48 μl of enriched CETP fraction (1-3 μg), obtained from human plasma by means of hydrophobic chromatography, and 2 μl of a solution of the substance to be investigated in DMSO and incubated at 37° C. for 4 h.
The change in the fluorescence at 485/535 nm is a measure of the CE transfer; the inhibition of the transfer in comparison to the control batch without substance is determined.

transgenic hCETP mice = assay: Measurement of the in vivo activity in transgenic hCETP mice; settings: perorally once a day on 3 days, percentage change compared with the starting value
Experimental: To determine the oral action on lipoproteins and triglycerides, test substance is administered perorally to transgenic mice [Dinchuk et al., BBA, 1295-1301 (1995)] using a stomach tube once a day on 3 days. For this purpose, the substances are dissolved in 10% Solutol HS 15/10% ethanol/80% of a 0.9% strength sodium chloride solution; the administration volume is generally 10 ml per kg of body weight. Before the start of the experiment, blood is withdrawn from the mice retro-orbitally in order to determine cholesterol and triglycerides in the serum. The serum is obtained as described above for hamsters by incubation at room temperature for 30 min and subsequent centrifugation at 6000 g. On the day after the last administration of substance, blood is again withdrawn from the mice in order to determine lipoproteins and triglycerides. The changes in the parameters measured are expressed as the percentage change compared with the starting value.

IC50 (CETP [1])	IC50 (CETP [2])	SMILES	% increase of HDL after 3 d (dose: 3 × 3 mg/kg) (transgenic hCETP mice)
20 nM	32 nM	CC(C)c1cc2c(c(-c3ccc(F)cc3)c1[C@@H](F)c1ccc(C(F)(F)F)cc1)[C@@H](O)CC(C)(C)O2 [Example 7, (4S)-5-(4-Fluorophenyl)-6-{(S)-fluoro[4-(trifluoromethyl)phenyl]methyl}-7-isopropyl-2,2-dimethylchroman-4-ol]	67%
22 nM	77 nM	CC(C)c1cc2c(c(-c3ccc(F)cc3)c1[C@@H](O)c1ccc(C(F)(F)F)cc1)[C@@H](O)CC1(CCC1)O2 [Example 28, (4S)-5-(4-Fluorophenyl)-6-{(S)-hydroxy[4-(trifluoromethyl)phenyl]methyl}-7-isopropyl-3,4-dihydrospiro[chromen-2,1′-cyclobutan]-4-ol]	25%
12 nM	18 nM	CC(C)c1cc2c(c(-c3ccc(F)cc3)c1[C@@H](F)c1ccc(C(F)(F)F)cc1)[C@@H](O)CC1(CCC1)O2 [Example 30, (4S)-5-(4-Fluorophenyl)-6-{(S)-fluoro[4-(trifluoromethyl)phenyl]methyl}-7-isopropyl-3,4-dihydro-spiro[chromen-2,1′-cyclobutan]-4-ol]	83%
20 nM	53 nM	CC(C)c1cc2c(c(-c3ccc(F)cc3)c1[C@H](F)c1ccc(C(F)(F)F)cc1)[C@@H](O)CC1(CCC1)O2 [Example 31, (4S)-5-(4-fluorophenyl)-6-{(R)-fluoro[4-(trifluoromethyl)phenyl]methyl}-7-isopropyl-3,4-dihydro-spiro[chromen-2,1′-cyclobutan]-4-ol]	–
4 nM	19 nM	CC(C)c1cc2c(c(-c3ccc(F)cc3)c1Cc1ccc(C(F)(F)F)cc1)[C@@H](O)CC1(CCC1)O2 [Example 32, (4S)-5-(4-Fluorophenyl)-7-isopropyl-6-[4-(trifluoromethyl)benzyl]-3,4-dihydrospiro[chromen-2,1′-cyclobutan]-4-ol]	31%
16 nM	59 nM	CC(C)c1cc2c(c(-c3ccc(F)cc3)c1C(=O)c1ccc(C(C)(C)C)cc1)[C@@H](O)CC1(CCC1)O2 [Example 33, (4-tert-Butylphenyl)[(4S)-5-(4-fluorophenyl)-4-hydroxy-7-isopropyl-3,4-dihydrospiro[chromen-2,1′-cyclobutan]-6-yl]methanone]	–
5 nM	14 nM	CC(C)c1cc2c(c(-c3ccc(F)cc3)c1[C@@H](O)c1ccc(C(C)(C)C)cc1)[C@@H](O)CC1(CCC1)O2 [Example 34, (4S)-6-[(S)-(4-tert-Butylphenyl)(hydroxy)methyl]-5-(4-fluorophenyl)-7-isopropyl-3,4-dihydro-spiro[chromen-2,1′-cyclobutan]-4-ol]	–
400 nM	800 nM	CC(C)c1cc2c(c(-c3ccc(F)cc3)c1[C@H](O)c1ccc(C(C)(C)C)cc1)[C@@H](O)CC1(CCC1)O2 [Example 35, (4S)-6-[(R)-(4-tert-butylphenyl)(hydroxy)methyl]-5-(4-fluorophenyl)-7-isopropyl-3,4-dihydro-spiro[chromen-2,1′-cyclobutan]-4-ol]	–
30 nM	36 nM	CC(C)c1cc2c(c(-c3ccc(F)cc3)c1C(=O)c1ccc(OC(F)(F)F)cc1)[C@@H](O)CC1(CCC1)O2 [Example 37, [(4S)-5-(4-Fluorophenyl)-4-hydroxy-7-isopropyl-3,4-dihydrospiro[chromen-2,1′-cyclobutan]-6-yl]-[4-(trifluoromethoxy)phenyl]methanone]	–
15 nM	19 nM	CC(C)c1cc2c(c(-c3ccc(F)cc3)c1Cc1ccc(OC(F)(F)F)cc1)[C@@H](O)CC1(CCC1)O2 [Example 41, (4S)-5-(4-Fluorophenyl)-7-isopropyl-6-[4-(trifluoromethoxy)benzyl]-3,4-dihydrospiro[chromen-2,1′-cyclobutan]-4-ol]	–
100 nM	61 nM	CC(C)c1cc2c(c(C3CCCC3)c1[C@H](F)c1ccc(C(F)(F)F)cc1)[C@@H](O)CC1(CCC1)O2 [Example 43, (4S)-5-cyclopentyl-6-{(R)-fluoro[4-(trifluoromethyl)phenyl]methyl}-7-isopropyl-3,4-dihydrospiro-[chroman-2,1′-cyclobutan]-4-ol]	–
31 nM	45 nM	O=C(c1ccc(C(F)(F)F)cc1)c1c(C2CCCC2)cc2c(c1-c1ccc(F)cc1)[C@@H](O)CC1(CCC1)O2 [Example 44]	–
21 nM	26 nM	O[C@@H](c1ccc(C(F)(F)F)cc1)c1c(C2CCCC2)cc2c(c1-c1ccc(F)cc1)[C@@H](O)CC1(CCC1)O2 [Example 45]	–
38 nM	50 nM	CC(C)(C)c1ccc(C(=O)c2c(C3CCCC3)cc3c(c2-c2ccc(F)cc2)[C@@H](O)CC2(CCC2)O3)cc1 [Example 47]	–
14 nM	33 nM	CC(C)(C)c1ccc([C@H](O)c2c(C3CCCC3)cc3c(c2-c2ccc(F)cc2)[C@@H](O)CC2(CCC2)O3)cc1 [Example 48]	–
15 nM	30 nM	CC(C)(C)c1ccc(Cc2c(C3CCCC3)cc3c(c2-c2ccc(F)cc2)[C@@H](O)CC2(CCC2)O3)cc1 [Example 50]	–
100 nM	42 nM	O=C(c1ccc(OC(F)(F)F)cc1)c1c(C2CCCC2)cc2c(c1-c1ccc(F)cc1)[C@@H](O)CC1(CCC1)O2 [Example 51]	–
30 nM	198 nM	O[C@@H](c1ccc(OC(F)(F)F)cc1)c1c(C2CCCC2)cc2c(c1-c1ccc(F)cc1)[C@@H](O)CC1(CCC1)O2 [Example 52]	–
4 nM	27 nM	CC(C)c1cc2c(c(-c3ccc(F)cc3)c1[C@@H](O)c1ccc(C(F)(F)F)cc1)[C@@H](O)CC1(CC1)O2 [Example 55]	–
68 nM	300 nM	CC(C)c1cc2c(c(-c3ccc(F)cc3)c1[C@H](F)c1ccc(C(F)(F)F)cc1)[C@@H](O)CC1(CC1)O2 [Example 58]	–
